Data as given in patent US8921362B2, “6,7-dialkoxy quinazoline derivatives and methods of treating drug resistant and other tumors” (Natco Pharma Limited, priority 2008, dated 2014).

Legend:
Experiment in all cases: KinomeScan
Type in all cases: binding
Details in all cases: read-out: % Ctrl @ 10000 nM
ABL1(Y253F) = biological target: T1, ABL1(Y253F) (Homo sapiens, UniProt P00519, Y253F)
T1 construct: host or cells: E. coli (BL21-derived), T7 phage lysate
In short: (§1)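 Lysates from phage-infected E. coli (32° C., shaking until lysis) were filtered and exposed to biotin-blocked ligand beads together with test compound. Eluted phage was counted by quantitative PCR.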

AMPK-alpha1 = biological target: T2, AMPK-alpha1 (Homo sapiens, UniProt Q13131)
T2 construct: host or cells: E. coli (BL21-derived), T7 phage lysate
In short: as §1

BMPR1B = biological target: T3, BMPR1B (Homo sapiens, UniProt O00238)
T3 construct: host or cells: E. coli host derived from BL21
In short: as §1

CAMK1D = biological target: T4, CAMK1D (Homo sapiens, UniProt Q8IU85)
T4 construct: host or cells: E. coli host derived from BL21
In short: as §1

CAMK2B = biological target: T5, CAMK2B (Homo sapiens, UniProt Q13554)
T5 construct: host or cells: E. coli host derived from BL21
In short: as §1

CSNK1G1 = biological target: T6, CSNK1G1 (Homo sapiens, UniProt Q9HCP0)
T6 construct: purchased Ambit Biosciences Corp (KinomeScan); host or cells: T7 phage in E. coli host derived from BL21
In short: as §1

CSNK2A2 = biological target: T7, CSNK2A2 (Homo sapiens, UniProt P19784)
T7 construct: purchased Ambit Biosciences Corp (KinomeScan); host or cells: T7 phage in E. coli host derived from BL21
In short: as §1

DDR1 = biological target: T8, DDR1 (Homo sapiens, UniProt Q08345)
T8 construct: purchased Ambit Biosciences Corp (KinomeScan); host or cells: T7 phage in E. coli host derived from BL21
In short: as §1

EGFR(G719C) = biological target: T9, EGFR(G719C) (Homo sapiens, UniProt P00533, G719C)
T9 construct: purchased Ambit Biosciences Corp (KinomeScan); host or cells: T7 phage in E. coli host derived from BL21
In short: as §1

EGFR(L858R) = biological target: T10, EGFR(L858R) (Homo sapiens, UniProt P00533, L858R)
T10 construct: purchased Ambit Biosciences Corp; host or cells: T7 phage in E. coli host derived from BL21
In short: as §1

EGFR(L861Q) = biological target: T11, EGFR(L861Q) (Homo sapiens, UniProt P00533, L861Q)
T11 construct: purchased Ambit Biosciences Corp; host or cells: T7 phage in E. coli host derived from BL21
In short: as §1

EPHA2 = biological target: T12, EPHA2 (Homo sapiens, UniProt P29317)
T12 construct: purchased Ambit Biosciences Corp; host or cells: T7 phage in E. coli host derived from BL21
In short: as §1

ERK4 = biological target: T13, ERK4 (Homo sapiens, UniProt P31152)
T13 construct: purchased Ambit Biosciences Corp; host or cells: T7 phage in E. coli host derived from BL21
In short: as §1

FLT3(K663Q) = biological target: T14, FLT3(K663Q) (Homo sapiens, UniProt P36888, K663Q)
T14 construct: host or cells: T7 phage in E. coli host derived from BL21
In short: as §1

INSRR = biological target: T15, INSRR (Homo sapiens, UniProt P14616)
T15 construct: host or cells: T7 phage grown in E. coli host derived from BL21
In short: as §1

IRAK3 = biological target: T16, IRAK3 (Homo sapiens, UniProt Q9Y616)
T16 construct: host or cells: T7 phage grown in E. coli host derived from BL21
In short: as §1

ITK = biological target: T17, ITK (Homo sapiens, UniProt Q08881)
T17 construct: host or cells: T7 phage grown in E. coli host derived from BL21
In short: as §1

[1] = biological target: T18, JAK2(JH1domain- catalytic) (Homo sapiens, UniProt O60674)
T18 construct: JAK2(JH1domain- catalytic); host or cells: T7 phage grown in E. coli host derived from BL21
In short: as §1

KIT(V559D, T670I) = biological target: T19, KIT(V559D, T670I) (Homo sapiens, UniProt P10721, T670I/V559D)
T19 construct: host or cells: T7 phage grown in E. coli host derived from BL21
In short: as §1

MAPKAPK5 = biological target: T20, MAPKAPK5 (Homo sapiens, UniProt Q8IW41)
T20 construct: host or cells: E. coli host derived from the BL21 strain, infected with T7 phage
In short: as §1

MARK4 = biological target: T21, MARK4 (Homo sapiens, UniProt Q96L34)
T21 construct: host or cells: E. coli host derived from the BL21 strain, infected with T7 phage
In short: as §1

MINK = biological target: T22, MINK (Homo sapiens, UniProt Q8N4C8)
T22 construct: host or cells: E. coli host derived from the BL21 strain, infected with T7 phage
In short: as §1

MLK2 = biological target: T23, MLK2 (Homo sapiens, UniProt Q02779)
T23 construct: host or cells: T7 phage grown in E. coli host derived from BL21
In short: as §1

NEK2 = biological target: T24, NEK2 (Homo sapiens, UniProt P51955)
T24 construct: host or cells: T7 phage grown in E. coli host derived from BL21
In short: as §1

PAK6 = biological target: T25, PAK6 (Homo sapiens, UniProt Q9NQU5)
T25 construct: host or cells: E. coli host derived from BL21, infected with T7 phage
In short: as §1

PHKG2 = biological target: T26, PHKG2 (Homo sapiens, UniProt P15735)
T26 construct: host or cells: E. coli host derived from BL21, infected with T7 phage
In short: as §1

RIOK2 = biological target: T27, RIOK2 (Homo sapiens, UniProt Q9BVS4)
T27 construct: host or cells: E. coli host derived from BL21, T7 phage display
In short: as §1

SIK2 = biological target: T28, SIK2 (Homo sapiens, UniProt Q9H0K1)
T28 construct: host or cells: T7 phage grown in E. coli (BL21-derived)
In short: as §1

STK33 = biological target: T29, STK33 (Homo sapiens, UniProt Q9BYT3)
T29 construct: host or cells: T7 phage grown in E. coli (BL21-derived)
In short: as §1

SgK085 = biological target: T30, SgK085 (Homo sapiens, UniProt Q86YV6)
T30 construct: host or cells: T7 phage grown in E. coli (BL21-derived)
In short: as §1

ZAK = biological target: T31, ZAK (Homo sapiens, UniProt Q9NYL2)
T31 construct: host or cells: T7 phage grown in an E. coli host derived from BL21
In short: as §1

p38-alpha = biological target: T32, p38-alpha (Homo sapiens, UniProt Q16539)
T32 construct: host or cells: E. coli host derived from BL21, infected with T7 phage
In short: as §1

T11 sequence (P00533 25-1210 L861Q): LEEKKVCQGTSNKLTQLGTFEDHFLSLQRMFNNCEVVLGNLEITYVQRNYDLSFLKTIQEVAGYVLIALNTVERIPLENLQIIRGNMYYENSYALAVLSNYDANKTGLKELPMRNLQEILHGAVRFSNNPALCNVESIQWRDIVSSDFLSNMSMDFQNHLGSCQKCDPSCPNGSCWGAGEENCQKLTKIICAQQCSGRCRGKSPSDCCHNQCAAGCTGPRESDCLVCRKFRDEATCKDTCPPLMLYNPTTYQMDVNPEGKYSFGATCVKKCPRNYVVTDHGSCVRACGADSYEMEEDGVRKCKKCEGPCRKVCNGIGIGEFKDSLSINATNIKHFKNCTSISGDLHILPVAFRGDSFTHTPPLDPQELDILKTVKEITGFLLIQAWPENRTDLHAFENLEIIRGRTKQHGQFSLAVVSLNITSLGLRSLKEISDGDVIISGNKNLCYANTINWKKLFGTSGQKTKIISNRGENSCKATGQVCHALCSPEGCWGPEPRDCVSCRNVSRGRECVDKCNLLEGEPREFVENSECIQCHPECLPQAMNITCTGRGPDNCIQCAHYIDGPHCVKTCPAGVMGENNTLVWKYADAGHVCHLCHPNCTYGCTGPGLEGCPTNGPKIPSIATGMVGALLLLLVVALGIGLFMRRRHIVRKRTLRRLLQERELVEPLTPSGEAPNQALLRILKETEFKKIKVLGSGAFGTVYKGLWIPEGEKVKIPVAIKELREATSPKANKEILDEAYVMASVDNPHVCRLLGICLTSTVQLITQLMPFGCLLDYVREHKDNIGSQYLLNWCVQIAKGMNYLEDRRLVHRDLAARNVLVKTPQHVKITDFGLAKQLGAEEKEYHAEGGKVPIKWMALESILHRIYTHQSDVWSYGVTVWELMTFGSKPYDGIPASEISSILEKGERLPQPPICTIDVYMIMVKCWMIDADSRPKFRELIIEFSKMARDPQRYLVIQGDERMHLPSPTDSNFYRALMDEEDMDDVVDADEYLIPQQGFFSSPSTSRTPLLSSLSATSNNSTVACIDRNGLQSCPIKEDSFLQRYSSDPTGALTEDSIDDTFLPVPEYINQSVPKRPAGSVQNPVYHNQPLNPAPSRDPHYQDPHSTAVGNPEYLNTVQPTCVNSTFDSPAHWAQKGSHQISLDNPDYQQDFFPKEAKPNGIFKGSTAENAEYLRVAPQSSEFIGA
T13 sequence (P31152 whole entry): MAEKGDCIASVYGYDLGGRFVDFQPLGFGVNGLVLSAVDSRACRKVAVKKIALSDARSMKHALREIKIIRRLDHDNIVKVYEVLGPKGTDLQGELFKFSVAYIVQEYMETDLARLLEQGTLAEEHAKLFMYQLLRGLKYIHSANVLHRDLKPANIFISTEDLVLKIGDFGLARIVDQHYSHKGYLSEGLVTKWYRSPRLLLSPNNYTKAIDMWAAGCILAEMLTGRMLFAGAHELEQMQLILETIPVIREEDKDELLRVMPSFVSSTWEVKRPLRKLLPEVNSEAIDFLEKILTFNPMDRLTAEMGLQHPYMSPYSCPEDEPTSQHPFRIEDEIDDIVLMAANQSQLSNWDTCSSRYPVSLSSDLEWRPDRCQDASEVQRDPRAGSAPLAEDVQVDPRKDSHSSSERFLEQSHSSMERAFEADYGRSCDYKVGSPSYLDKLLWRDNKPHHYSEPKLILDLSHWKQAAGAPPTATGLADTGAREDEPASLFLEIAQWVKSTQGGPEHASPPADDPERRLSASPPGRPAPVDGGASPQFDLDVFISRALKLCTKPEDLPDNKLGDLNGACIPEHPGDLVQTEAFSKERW
T3 sequence (O00238 14-502): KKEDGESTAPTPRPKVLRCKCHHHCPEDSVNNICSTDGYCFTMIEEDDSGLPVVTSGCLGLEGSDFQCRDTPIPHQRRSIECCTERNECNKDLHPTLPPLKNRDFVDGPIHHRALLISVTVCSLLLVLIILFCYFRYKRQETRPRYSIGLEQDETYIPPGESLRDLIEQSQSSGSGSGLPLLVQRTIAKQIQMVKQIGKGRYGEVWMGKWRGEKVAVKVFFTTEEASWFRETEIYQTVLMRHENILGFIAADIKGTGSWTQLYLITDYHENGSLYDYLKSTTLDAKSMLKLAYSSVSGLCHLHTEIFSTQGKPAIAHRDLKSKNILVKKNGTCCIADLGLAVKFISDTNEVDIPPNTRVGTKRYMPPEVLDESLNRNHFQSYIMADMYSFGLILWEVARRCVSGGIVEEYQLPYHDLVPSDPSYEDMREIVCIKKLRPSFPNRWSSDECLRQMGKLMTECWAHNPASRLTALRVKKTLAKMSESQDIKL
T15 sequence (P14616 27-1297): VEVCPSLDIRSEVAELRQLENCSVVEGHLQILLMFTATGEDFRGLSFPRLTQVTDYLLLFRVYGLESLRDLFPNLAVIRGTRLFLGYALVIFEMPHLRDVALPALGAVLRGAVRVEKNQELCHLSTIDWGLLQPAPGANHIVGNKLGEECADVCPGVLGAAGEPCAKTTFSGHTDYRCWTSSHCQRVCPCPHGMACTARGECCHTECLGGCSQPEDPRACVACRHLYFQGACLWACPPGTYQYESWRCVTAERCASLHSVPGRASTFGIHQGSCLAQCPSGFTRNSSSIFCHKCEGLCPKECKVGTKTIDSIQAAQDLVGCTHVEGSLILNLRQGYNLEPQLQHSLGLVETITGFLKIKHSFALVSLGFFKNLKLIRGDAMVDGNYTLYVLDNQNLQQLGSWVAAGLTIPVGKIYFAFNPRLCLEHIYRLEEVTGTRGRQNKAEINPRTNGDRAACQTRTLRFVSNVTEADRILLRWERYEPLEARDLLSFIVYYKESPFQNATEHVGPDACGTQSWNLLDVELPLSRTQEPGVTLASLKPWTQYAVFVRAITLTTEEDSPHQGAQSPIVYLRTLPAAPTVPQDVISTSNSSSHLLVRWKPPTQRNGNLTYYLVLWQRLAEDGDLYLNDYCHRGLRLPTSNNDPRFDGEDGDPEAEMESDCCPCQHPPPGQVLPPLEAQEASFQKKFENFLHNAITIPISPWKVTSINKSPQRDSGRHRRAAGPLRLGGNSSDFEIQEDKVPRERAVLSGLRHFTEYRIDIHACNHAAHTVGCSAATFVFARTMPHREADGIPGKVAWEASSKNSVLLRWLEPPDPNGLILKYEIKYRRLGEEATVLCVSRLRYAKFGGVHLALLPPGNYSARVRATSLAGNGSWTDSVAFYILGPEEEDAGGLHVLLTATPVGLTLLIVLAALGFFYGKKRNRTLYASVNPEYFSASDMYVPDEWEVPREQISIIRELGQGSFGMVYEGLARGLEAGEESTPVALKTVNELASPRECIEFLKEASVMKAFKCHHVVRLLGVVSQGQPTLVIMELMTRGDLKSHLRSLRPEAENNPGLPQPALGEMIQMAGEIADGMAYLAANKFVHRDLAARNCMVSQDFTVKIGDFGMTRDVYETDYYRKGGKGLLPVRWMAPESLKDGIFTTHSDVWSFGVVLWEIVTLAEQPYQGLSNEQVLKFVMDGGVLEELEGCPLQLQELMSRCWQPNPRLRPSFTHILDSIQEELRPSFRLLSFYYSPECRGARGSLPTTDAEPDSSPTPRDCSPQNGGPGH
T8 sequence (Q08345 19-913): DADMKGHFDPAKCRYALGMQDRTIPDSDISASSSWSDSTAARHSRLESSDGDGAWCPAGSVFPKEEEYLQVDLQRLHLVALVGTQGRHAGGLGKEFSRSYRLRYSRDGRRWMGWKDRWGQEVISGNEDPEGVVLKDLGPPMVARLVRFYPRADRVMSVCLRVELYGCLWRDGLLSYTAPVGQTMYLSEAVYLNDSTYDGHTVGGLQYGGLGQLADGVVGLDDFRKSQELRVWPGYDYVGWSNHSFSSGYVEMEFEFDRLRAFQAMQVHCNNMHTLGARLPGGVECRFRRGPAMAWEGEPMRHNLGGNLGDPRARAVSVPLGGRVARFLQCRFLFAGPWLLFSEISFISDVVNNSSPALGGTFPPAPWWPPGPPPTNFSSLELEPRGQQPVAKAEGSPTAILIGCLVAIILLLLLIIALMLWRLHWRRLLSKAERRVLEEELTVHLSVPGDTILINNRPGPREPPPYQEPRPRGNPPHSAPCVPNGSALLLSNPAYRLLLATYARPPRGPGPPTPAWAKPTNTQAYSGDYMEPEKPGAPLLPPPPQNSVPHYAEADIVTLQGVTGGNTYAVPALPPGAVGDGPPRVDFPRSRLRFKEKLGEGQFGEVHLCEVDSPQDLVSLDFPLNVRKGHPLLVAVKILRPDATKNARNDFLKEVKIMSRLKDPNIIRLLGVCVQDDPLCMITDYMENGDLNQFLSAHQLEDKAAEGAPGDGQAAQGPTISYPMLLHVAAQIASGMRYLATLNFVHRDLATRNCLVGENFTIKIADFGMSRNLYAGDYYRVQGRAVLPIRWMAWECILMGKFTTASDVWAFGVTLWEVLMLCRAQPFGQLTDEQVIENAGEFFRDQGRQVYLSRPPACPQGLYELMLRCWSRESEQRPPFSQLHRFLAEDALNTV
T29 sequence (Q9BYT3 whole entry): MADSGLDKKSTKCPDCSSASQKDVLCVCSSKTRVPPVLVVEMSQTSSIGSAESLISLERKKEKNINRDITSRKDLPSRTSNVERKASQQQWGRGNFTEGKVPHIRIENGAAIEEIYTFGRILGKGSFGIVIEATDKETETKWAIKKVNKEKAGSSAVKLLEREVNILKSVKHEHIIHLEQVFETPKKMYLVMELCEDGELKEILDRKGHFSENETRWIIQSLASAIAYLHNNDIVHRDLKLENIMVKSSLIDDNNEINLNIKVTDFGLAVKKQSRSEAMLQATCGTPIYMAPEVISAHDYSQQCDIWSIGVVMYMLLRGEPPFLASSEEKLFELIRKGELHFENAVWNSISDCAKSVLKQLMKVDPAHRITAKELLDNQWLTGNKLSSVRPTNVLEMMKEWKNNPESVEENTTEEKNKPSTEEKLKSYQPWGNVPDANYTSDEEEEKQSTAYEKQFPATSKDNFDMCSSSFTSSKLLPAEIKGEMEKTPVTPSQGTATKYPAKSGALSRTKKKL

C#Cc1cccc(Nc2ncnc3cc(OC)c(OCCCN4CCOCC4)cc23)c1 [NRC-2694, N-(3-ethynylphenyl)-7-methoxy-6-[3-(4-morpholinyl)propoxy]-4-quinazolinamine]
remaining binding at 10 µM (ABL1(Y253F)): 23%
remaining binding at 10 µM (AMPK-alpha1): 50%
remaining binding at 10 µM (BMPR1B): 78%
remaining binding at 10 µM (CAMK1D): 83%
remaining binding at 10 µM (CAMK2B): 77%
remaining binding at 10 µM (CSNK1G1): 55%
remaining binding at 10 µM (CSNK2A2): 52%
remaining binding at 10 µM (DDR1): 39%
remaining binding at 10 µM (EGFR(G719C)): 0%
remaining binding at 10 µM (EGFR(L858R)): 0%
remaining binding at 10 µM (EGFR(L861Q)): 0%
remaining binding at 10 µM (EPHA2): 100%
remaining binding at 10 µM (ERK4): 3.7%
remaining binding at 10 µM (FLT3(K663Q)): 56%
remaining binding at 10 µM (INSRR): 79%
remaining binding at 10 µM (IRAK3): 25%
remaining binding at 10 µM (ITK): 82%
remaining binding at 10 µM [1]: 38%
remaining binding at 10 µM (KIT(V559D, T670I)): 28%
remaining binding at 10 µM (MAPKAPK5): 79%
remaining binding at 10 µM (MARK4): 100%
remaining binding at 10 µM (MINK): 16%
remaining binding at 10 µM (MLK2): 83%
remaining binding at 10 µM (NEK2): 63%
remaining binding at 10 µM (PAK6): 70%
remaining binding at 10 µM (PHKG2): 59%
remaining binding at 10 µM (RIOK2): 43%
remaining binding at 10 µM (SIK2): 21%
remaining binding at 10 µM (STK33): 43%
remaining binding at 10 µM (SgK085): 84%
remaining binding at 10 µM (ZAK): 74%
remaining binding at 10 µM (p38-alpha): 89%
